Assay results from patent US20240317712A1, “[…] DERIVATIVES AS INHIBITORS OF […]-PEPTIDE CYCLOTRANSFERASE AND […]-PEPTIDE CYCLOTRANSFERASE LIKE PROTEIN” (Boehringer Ingelheim International GmbH, priority 2023, published 2024).

Test system: SIRPα signalling induced by A549 cells
Assay: Assay B: SIRPα signalling assay using A549 cells
Assay type: cell-based
Conditions: Homo sapiens, 48 h compound incubation, Jurkat PathHunter SIRPaV1 reporter cells, read-out: Inhibition of SIRPα signalling induced by A549 cells: IC50
Experimental: (§1) Two cell types are independently used: the Raji cell line (lymphoblast-like human cell line derived from B lymphocytes from a Burkitt's lymphoma patient in 1963) and A549 cells (adenocarcinoma human alveolar basal epithelial cells).
(§2) Test compounds were dissolved in 100% DMSO and serially diluted into a white 384-well microtiter cell culture plate (PerkinElmer #60076780 in case of Raji assay; PDL-coated plates Greiner #781945 in case of A549 assay), 5000 Raji cells (ATCC #CC86) or 5000 A549 cells (ATCC #CCL-185) in Assay Complete Cell Plating reagent 30 (DiscoverX 93-0563R30B) were added per well. The assay plate was incubated for 48 h at 37° C., 95% humidity and 5% CO2. 15000 reporter cells (Jurkat PathHunter SIRPaV1, DiscoverX #93-1135C19) were added to each well, and the plate was incubated for 5 h at 37° C., 95% humidity and 5% CO2. Bioassay reagent 1 of the PathHunter Bioassay detection kit (DiscoverX 93-0001) was added to each well of the plate using a multichannel pipette followed by a 15 min incubation at room temperature. Afterwards bioassay reagent 2 was added followed by 60 min incubation at room temperature (incubation in the dark). The analysis of the data was performed using the luminescence signal generated by beta-galactosidase in the PathHunter reporter cell line. The luminescence measurement was done using a Pherastar Multi-Mode Reader. Dose-response curves & IC50 data were calculated with 4-parameter sigmoidal dose response formula.

Structure (SMILES) | IC50
Cn1cnnc1C1(F)CCN(c2c(C#N)cc(C(F)(F)F)cc2-c2cnc3nc(C(F)(F)F)cn3c2)CC1 [Example 22] | 39 nM
Cn1cnnc1C1(F)CCN(c2c(C#N)cc(F)cc2-c2cnc3nn(C(C)(C)C)c(Cl)c3c2)CC1 [Example 24] | 13 nM
Cn1cnnc1C1(F)CCN(c2c(C#N)cc(F)cc2-c2cnc3nn(C(C)(C)C)cc3c2)CC1 [Example 25] | 10 nM

Results, then the molecule that gave them:

IC50 | Structure (SMILES)
145 nM | COc1cc(-c2cc(C(F)(F)F)cc(C#N)c2N2CCC(F)(c3nncn3C)CC2)cnn1 [Example 23]
73 nM | Cn1cnnc1C1(F)CCN(c2c(-c3cnc4nn(C(C)(C)C)cc4c3)ccc(OCCC(C)(C)O)c2C#N)CC1 [Example 34]
3060 nM | Nc1ncc(C2CCN(c3ncccc3-c3ccc(F)nc3)CC2)s1 [Prior art Compound 1094, reference compound]

Test system: SIRPα signalling induced by Raji cells
Assay: Assay B: SIRPα signalling assay using Raji cells
Assay type: cell-based
Conditions: Homo sapiens, 48 h compound incubation, Jurkat PathHunter SIRPaV1 reporter cells, read-out: Inhibition of SIRPα signalling induced by Raji cells: IC50
Experimental: as §1, §2

Structure (SMILES) | IC50
Cn1cnnc1C1(F)CCN(c2c(C#N)cc(C(F)(F)F)cc2-c2cnc3nc(C(F)(F)F)cn3c2)CC1 [Example 22] | 17 nM
Cn1cnnc1C1(F)CCN(c2c(C#N)cc(F)cc2-c2cnc3nn(C(C)(C)C)c(Cl)c3c2)CC1 [Example 24] | 16 nM
Cn1cnnc1C1(F)CCN(c2c(C#N)cc(F)cc2-c2cnc3nn(C(C)(C)C)cc3c2)CC1 [Example 25] | 23 nM

Now from value to molecule:

IC50 | Structure (SMILES)
278 nM | COc1cc(-c2cc(C(F)(F)F)cc(C#N)c2N2CCC(F)(c3nncn3C)CC2)cnn1 [Example 23]
36 nM | Cn1cnnc1C1(F)CCN(c2c(-c3cnc4nn(C(C)(C)C)cc4c3)ccc(OCCC(C)(C)O)c2C#N)CC1 [Example 34]

Test system: not listed separately
Assay: Assay C: Permeability in CACO-2 cells
Assay type: in vitro ADME
Conditions: human, pH 7.2; Caco-2, permeability B−A/permeability A−B
Experimental: Caco-2 cells (1-2×10^5 cells/1 cm^2 area) are seeded on filter inserts (Costar transwell polycarbonate or PET filters, 0.4 μm pore size) and cultured (DMEM) for 10 to 25 days. Compounds are dissolved in appropriate solvent (like DMSO, 1-20 mM stock solutions). […] The transport solution (TL) is applied to the apical or basolateral donor side for measuring A-B or B-A permeability (3 filter replicates), respectively. Samples are collected at the start and end of experiment from the donor and at various time intervals for up to 2 hours also from the receiver side for concentration measurement by HPLC-MS/MS or scintillation counting. Sampled receiver volumes are replaced with fresh receiver solution.
Efflux ratio (ER)=permeability B−A/permeability A−B

efflux ratio | Structure (SMILES)
10.5 | Cn1cnnc1C1(F)CCN(c2c(C#N)cc(C(F)(F)F)cc2-c2cnc3nc(C(F)(F)F)cn3c2)CC1 [Example 22]
4.3 | COc1cc(-c2cc(C(F)(F)F)cc(C#N)c2N2CCC(F)(c3nncn3C)CC2)cnn1 [Example 23]
1.7 | Cn1cnnc1C1(F)CCN(c2c(C#N)cc(F)cc2-c2cnc3nn(C(C)(C)C)c(Cl)c3c2)CC1 [Example 24]
9.7 | Cn1cnnc1C1(F)CCN(c2c(C#N)cc(F)cc2-c2cnc3nn(C(C)(C)C)cc3c2)CC1 [Example 25]

Same assay, conditions: human; Caco-2, apical to basolateral, pH 7.2

Papp A→B | Structure (SMILES)
2.1 ×10⁻⁶ cm/s | Cn1cnnc1C1(F)CCN(c2c(C#N)cc(C(F)(F)F)cc2-c2cnc3nc(C(F)(F)F)cn3c2)CC1 [Example 22]
13 ×10⁻⁶ cm/s | COc1cc(-c2cc(C(F)(F)F)cc(C#N)c2N2CCC(F)(c3nncn3C)CC2)cnn1 [Example 23]
46 ×10⁻⁶ cm/s | Cn1cnnc1C1(F)CCN(c2c(C#N)cc(F)cc2-c2cnc3nn(C(C)(C)C)c(Cl)c3c2)CC1 [Example 24]
7.5 ×10⁻⁶ cm/s | Cn1cnnc1C1(F)CCN(c2c(C#N)cc(F)cc2-c2cnc3nn(C(C)(C)C)cc3c2)CC1 [Example 25]

Target: T1, QPCTL (Homo sapiens, UniProt Q9NXS2)
T1 construct: made in house
T1 sequence (Q9NXS2 whole entry): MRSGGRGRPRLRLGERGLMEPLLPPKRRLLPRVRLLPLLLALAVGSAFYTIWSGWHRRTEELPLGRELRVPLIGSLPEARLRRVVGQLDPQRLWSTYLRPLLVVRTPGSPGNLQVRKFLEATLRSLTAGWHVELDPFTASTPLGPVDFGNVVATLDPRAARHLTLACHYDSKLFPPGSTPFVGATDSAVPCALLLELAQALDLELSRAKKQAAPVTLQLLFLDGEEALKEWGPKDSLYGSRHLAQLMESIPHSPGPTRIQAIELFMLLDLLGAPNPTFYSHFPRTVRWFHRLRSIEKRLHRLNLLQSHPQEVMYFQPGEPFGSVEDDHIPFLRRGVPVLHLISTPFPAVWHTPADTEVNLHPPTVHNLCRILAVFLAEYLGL
Assay: Assay A: biochemical QPCTL activity assay (MALDI-TOF MS, CD47 peptide substrate)
Conditions: 0.5 nM enzyme, 10 μM CD47 peptide substrate; read-out: Inhibition of QPCTL: IC50
Experimental: (§3) QPCT or QPCTL dependent conversion of N-terminal glutamine to pyroglutamate of CD47 was monitored via MALDI-TOF MS. Test compounds were dissolved in 100% DMSO and serially diluted into clear 1,536-well microtiter plates. Enzymatic reactions were set up in assay buffer containing 20 mM Tris pH 7.5, 0.1 mM TCEP, 0.01% BSA, and 0.001% Tween20. […] The plates were incubated for 10 min in a humidified incubator at 24° C. Subsequently, 2.5 µL of CD47 peptide substrate surrogate (^19[…]^33) was added to each well (final concentration: 10 μM for QPCTL/20 μM for QPCT). The plates were mixed for 30 sec at 1,000 rpm and subsequently incubated for 40 min in a humidified incubator at 24° C. […] The plates were sealed with an adhesive foil, mixed for 30 s at 1,000 rpm and stored at room temperature until preparation of the MALDI target plates. MALDI target plates were prepared as described previously. […] QPCT or QPCTL activity was monitored by calculating the ratio between product and internal standard signals followed by normalization to high (100% activity) and low (0% activity) controls. Determination of compound potencies was obtained by fitting the dose-response data to a four-parameter logistical equation.

Structure (SMILES) | IC50
Cn1cnnc1C1(F)CCN(c2c(C#N)cc(C(F)(F)F)cc2-c2cnc3nc(C(F)(F)F)cn3c2)CC1 [Example 22] | 1 nM
Cn1cnnc1C1(F)CCN(c2c(C#N)cc(F)cc2-c2cnc3nn(C(C)(C)C)c(Cl)c3c2)CC1 [Example 24] | 2 nM
Cn1cnnc1C1(F)CCN(c2c(C#N)cc(F)cc2-c2cnc3nn(C(C)(C)C)cc3c2)CC1 [Example 25] | 2 nM

Further lines, results first:

IC50 | Structure (SMILES)
21 nM | COc1cc(-c2cc(C(F)(F)F)cc(C#N)c2N2CCC(F)(c3nncn3C)CC2)cnn1 [Example 23]
1 nM | Cn1cnnc1C1(F)CCN(c2c(-c3cnc4nn(C(C)(C)C)cc4c3)ccc(OCCC(C)(C)O)c2C#N)CC1 [Example 34]
111 nM | Nc1ncc(C2CCN(c3ncccc3-c3ccc(F)nc3)CC2)s1 [Prior art Compound 1094, reference compound]
13 nM | Nc1nnc(C2CCN(c3ncccc3-c3ccc(F)nc3)CC2)s1 [Prior art Compound 1095, reference compound]

Target: T2, QPCT (Homo sapiens, UniProt Q16769)
T2 construct: purchased Origine (so in the source)
T2 sequence (Q16769 29-361): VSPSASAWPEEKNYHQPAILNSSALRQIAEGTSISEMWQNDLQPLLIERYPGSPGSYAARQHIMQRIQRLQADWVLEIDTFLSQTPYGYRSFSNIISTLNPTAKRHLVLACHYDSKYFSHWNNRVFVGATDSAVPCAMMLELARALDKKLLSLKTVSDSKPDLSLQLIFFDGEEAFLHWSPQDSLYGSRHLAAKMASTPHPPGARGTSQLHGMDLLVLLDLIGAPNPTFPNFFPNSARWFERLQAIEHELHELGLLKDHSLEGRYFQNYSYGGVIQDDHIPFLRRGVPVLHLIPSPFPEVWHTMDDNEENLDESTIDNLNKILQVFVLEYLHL
Assay: Assay A: biochemical QPCT activity assay (MALDI-TOF MS, CD47 peptide substrate)
Conditions: 0.5 nM enzyme, 20 μM CD47 peptide substrate; read-out: Inhibition of QPCT: IC50
Experimental: as §3

Structure (SMILES) | IC50
Cn1cnnc1C1(F)CCN(c2c(C#N)cc(C(F)(F)F)cc2-c2cnc3nc(C(F)(F)F)cn3c2)CC1 [Example 22] | 1 nM
Cn1cnnc1C1(F)CCN(c2c(C#N)cc(F)cc2-c2cnc3nn(C(C)(C)C)c(Cl)c3c2)CC1 [Example 24] | 1 nM
Cn1cnnc1C1(F)CCN(c2c(C#N)cc(F)cc2-c2cnc3nn(C(C)(C)C)cc3c2)CC1 [Example 25] | 1 nM
Cn1cnnc1C1CCN(c2ncccc2-c2cccnc2)CC1 [SEN180, reference compound] | 176 nM

Results, then the molecule that gave them:

IC50 | Structure (SMILES)
14 nM | COc1cc(-c2cc(C(F)(F)F)cc(C#N)c2N2CCC(F)(c3nncn3C)CC2)cnn1 [Example 23]
1710 nM | Nc1ncc(C2CCN(c3ncccc3-c3ccc(F)nc3)CC2)s1 [Prior art Compound 1094, reference compound]
260 nM | Nc1nnc(C2CCN(c3ncccc3-c3ccc(F)nc3)CC2)s1 [Prior art Compound 1095, reference compound]
